Assay results reported in BindingDB's records for doi:10.1038/nchembio.307 (Harvard Medical School, 2010).

Molecular target: T1, Amine oxidase [flavin-containing] B (Homo sapiens, UniProt P27338)
T1 sequence (P27338 whole entry): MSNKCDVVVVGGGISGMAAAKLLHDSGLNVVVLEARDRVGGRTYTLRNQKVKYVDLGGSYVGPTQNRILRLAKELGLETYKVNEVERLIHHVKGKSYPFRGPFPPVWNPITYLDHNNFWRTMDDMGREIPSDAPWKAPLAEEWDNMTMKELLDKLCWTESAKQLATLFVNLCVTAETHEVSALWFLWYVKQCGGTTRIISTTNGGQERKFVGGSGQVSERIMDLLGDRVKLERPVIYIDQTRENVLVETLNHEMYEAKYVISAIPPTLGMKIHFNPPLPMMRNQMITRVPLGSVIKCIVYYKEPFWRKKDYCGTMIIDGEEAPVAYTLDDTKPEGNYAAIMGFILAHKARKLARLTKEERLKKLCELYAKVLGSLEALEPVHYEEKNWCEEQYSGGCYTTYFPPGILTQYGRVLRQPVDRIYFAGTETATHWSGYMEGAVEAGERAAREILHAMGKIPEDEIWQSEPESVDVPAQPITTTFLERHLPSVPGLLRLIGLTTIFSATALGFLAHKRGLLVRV
Test: MAO-B Enzymatic Assay
Text: Momoamine oxidase type B(MAO-B) activity in vitro assay using molecules that caused a photomotor response (PMR) "magnitude stimulant' (MAG) phenotype characterized by increased PMR excitation magnitude.

IC50	Compound
10 µM	CC(C)(C)OC(=O)NCCC(=O)Oc1ccc(C(=O)Oc2ccc3c4c(c(=O)oc3c2)CCCC4)cc1Cl [MAG-5]
1 µM	CC(C)(C)OC(=O)NCCC(=O)Oc1ccc(C(=O)Oc2ccc3c4c(c(=O)oc3c2)CCC4)cc1Cl [MAG-3]
10 µM	O=C(CNC(=O)OCc1ccccc1)Oc1ccc(C(=O)Oc2ccc3c4c(c(=O)oc3c2)CCC4)cc1Cl [MAG-6]
0.5 µM	CC(C)(C)OC(=O)NCC(=O)Oc1ccc(C(=O)Oc2ccc3c4c(c(=O)oc3c2)CCC4)cc1Cl [MAG-7]
